Experimental data from US20160346295A1, “Selective Estrogen Receptor Modulators With Short Half-Lives and Uses Thereof” (REPROS THERAPEUTICS INC., priority 2012, published 2016).

What was measured:
[1] = blood plasma; cited from earlier work
[2] = test system: rodent, baboon, rabbit and dog models; experiment: Animal safety pharmacology studies; format: in vivo
[3] = human, in vivo, po
Method: A clinical study to estimate the pharmacokinetic (PK) profile of enclomiphene (trans-clomiphene) following single-dose and steady-state doses administered orally. 52 adult males between 18 and 75 years of age with total serum testosterone level<250 ng/dl or between 250 to 300 ng/dl and FSH/LH levels within the normal range, were randomly assigned to one of the following five treatment groups: (i) 12.5 mg enclomiphene/day (ii) 25 mg enclomiphene/day (iii) 50 mg enclomiphene/day (trans-clomiphene) (iv) Androgel® (1% topical testosterone applied daily) or (v) placebo. Enclomiphene citrate was provided as 12.5 mg capsules and orally administered once (12.5 mg arm) twice (25 mg arm) or four times (50 mg arm) per day for 14 consecutive days. Single-dose and steady-state PK assessments were preformed in a subset of these males following the first (Day 1) and last (Day 14) dose. […] Pre-dose plasma enclomiphene concentrations were also measured on Day 11 using a single blood sample. […] PK parameters were calculated using noncompartmental methods for subjects randomized to enclomiphene. The accumulation ratio, defined as the AUC0-24 on Day 14, divided by the AUC0-24 value on Day 1 was calculated.
The accumulation index for each enclomiphene dose group was calculated based on the arithmetic mean of the individual ratio of AUC(0-24) on Day 14 divided by AUC(0-24) on Day 1. […]

[4] = test system: adult human males with secondary hypogonadism; experiment: One year open label extension study, long term oral trans-clomiphene 12.5 mg daily
[5] = majority or all of the timepoints

Compound: COc1ccc2c(c1)OC(C)(C)C(c1ccccc1)C2c1ccc(OCCN2CCCC2)cc1 (stereo not shown) [Ormeloxifene]
- Half-Life [1]: 170 h

Compound: O=C(c1ccc(OCCN2CCCCC2)cc1)c1c(-c2ccc(O)cc2)sc2cc(O)ccc12 [Raloxifene, 6-hydroxy-2(4-hydroxyphenyl)-3-[4-(2-piperdinoethoxy)benzoyl]benzo[b]thiophene]
- Half-Life [1]: 27 h

Compound: CCN(CC)CCOc1ccc(/C(=C(\Cl)c2ccccc2)c2ccccc2)cc1 [Enclomiphene, trans-clomiphene]
- adverse effects in the central nervous, respiratory or cardiovascular systems [2]: no adverse effects
- half life of enclomiphene based on the PK data obtained [3]: ~10.5 h
- other questionnaires of sexual function (DISF-SR II (M), MSDS) ([4]; 12.5 mg daily oral): no concomitantly significant changes
- overall mean increases in total serum testosterone from baseline to 1 year ([4]; 12.5 mg daily oral): statistically significant
- subjects who experienced serious adverse effects (SAEs) ([4]; 12.5 mg daily oral up to one year): 5%
- subjects who experienced at least one adverse event considered related to the study drug ([4]; 19/101 subjects): 18.8%
- subjects with mean total serum testosterone levels within the normal reference range ([4]; at 1 year, normal range 300-1040 ng/dl, 12.5 mg daily oral): 62.5%
- discontinuation due to a reduction in visual acuity ([4]; during the study): No subjects were discontinued
- hematology, blood chemistry, urinalysis, vital signs, physical exam, PSA values, ECG readings ([4]; during the study): no clinically relevant changes
- subjects discontinued from the study due to AEs ([4]; during the study): Nine
- subjects who experienced at least one adverse event ([4]; during the study): 51.5%
- subjects with events considered severe ([4]; during the study): nine
- libido, libido component of IIEF questionnaire ([4]; from baseline at months 4, 6 and 12): Statistically significant improvements
- DHT/testosterone ratio change [4, 5]: Statistically significant increases
- FSH change [4, 5]: Statistically significant increases
- LH change [4, 5]: Statistically significant increases
- dihydrotestosterone (DHT) change [4, 5]: Statistically significant increases
- estradiol change [4, 5]: Statistically significant increases
- high-density lipoprotein cholesterol (HDL-C) change from baseline [4, 5]: Statistically significant decreases
- prolactin change [4, 5]: statistically significant decreases
- sex hormone binding globulin (SHBG) change [4, 5]: Statistically significant increases
- total cholesterol (TC) change from baseline [4, 5]: Statistically significant decreases
- triglycerides change from baseline [4, 5]: Statistically significant decreases
- testicular size, significance of increase ([4]; orchidometer): statistically significant increase was observed at Month 6 only

Compound: CC/C(=C(\c1ccccc1)c1ccc(OCCN(C)C)cc1)c1ccccc1 [Tamoxifen]
- Half-Life [1]: 120 to 170 h

Compound: COc1ccc2c(c1)OC(C)(C)[C@@H](c1ccccc1)[C@@H]2c1ccc(OCCN2CCCC2)cc1 [Levormeloxifene, (−)-3R,4R-trans-7-methoxy-2,2-dimethyl-3-phenyl-4-{4-[2-(pyrrolidin-1-yl)ethoxy]phenyl} chromane]
- Half-Life [1]: 24 h

Compound: OCCOc1ccc(/C(=C(/CCCl)c2ccccc2)c2ccccc2)cc1 [Ospemifene]
- Half-Life [1]: 26 h

Compound: CC/C(=C(/c1ccc(OCCN(C)C)cc1)c1cccc(O)c1)c1ccccc1 [Droloxifene, E-1-[4′-(2-dimethylaminoethoxy)phenyl]-1-(3′-hydroxyphenyl)-2-phenyl-1-butene]
- Half-Life [1]: 24 h

Compound: CC/C(=C(\c1ccc(I)cc1)c1ccc(OCCN2CCCC2)cc1)c1ccccc1 [Idoxifene]
- Half-Life [1]: 3 weeks

Compound: COc1ccc(-c2sc3cc(O)ccc3c2Oc2ccc(OCCN3CCCCC3)cc2)cc1 [Arzoxifene]
- Half-Life [1]: 30 h

Compound: CCN(CC)CCOc1ccc(C(=C(Cl)c2ccccc2)c2ccccc2)cc1 [Clomid]
- Half-Life [1]: 120 to 170 h

Compound: Oc1ccc2c(c1)CC[C@H](c1ccccc1)[C@@H]2c1ccc(OCCN2CCCC2)cc1 [Lasofoxifene]
- Half-Life [1]: 140 h
